# Source: PubChem BioAssay (NCI)
#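 Results reflect a 48-hour exposure of cells in 96-well plates to compound at five concentrations. TGI marks complete inhibition of growth.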
# Columns and labels:
# Assay in all cases: inhibition of tumour cell growth, NCI panel, 48 h
# LXFL 529 NSCLC = system: LXFL 529 NSCLC
# ACHN renal = system: ACHN renal
# HCT-116 colon = system: HCT-116 colon
# KM12 colon = system: KM12 colon
# MDA-N = system: MDA-N
# MALME-3M melanoma = system: MALME-3M melanoma
# HS 578T breast = system: HS 578T breast
# SR leukemia = system: SR leukemia
# HOP-92 NSCLC = system: HOP-92 NSCLC
# 786-0 renal = system: 786-0 renal
# EKVX NSCLC = system: EKVX NSCLC
# OVCAR-8 ovarian = system: OVCAR-8 ovarian
# RXF 393 renal = system: RXF 393 renal
# BT-549 breast = system: BT-549 breast
# NCI-H23 lung = system: NCI-H23 lung
# HOP-18 NSCLC = system: HOP-18 NSCLC
# LOX IMVI melanoma = system: LOX IMVI melanoma
# A498 renal = system: A498 renal
# UACC-257 melanoma = system: UACC-257 melanoma
# NCI-H226 lung = system: NCI-H226 lung
# CAKI-1 renal = system: CAKI-1 renal
# OVCAR-3 ovarian = system: OVCAR-3 ovarian
# MOLT-4 leukemia = system: MOLT-4 leukemia
# U251 CNS = system: U251 CNS
# SW-620 colon = system: SW-620 colon
# UACC-62 melanoma = system: UACC-62 melanoma
# SK-MEL-5 melanoma = system: SK-MEL-5 melanoma
# SK-MEL-28 melanoma = system: SK-MEL-28 melanoma
# OVCAR-4 ovarian = system: OVCAR-4 ovarian
# SF-539 CNS = system: SF-539 CNS
# DMS 273 small cell lung = system: DMS 273 small cell lung
# RXF-631 renal = system: RXF-631 renal
# HOP-62 NSCLC = system: HOP-62 NSCLC
# DLD-1 colon = system: DLD-1 colon
# HCT-15 colon = system: HCT-15 colon
# SNB-75 CNS = system: SNB-75 CNS
# HCC-2998 colon = system: HCC-2998 colon
# SK-MEL-2 melanoma = system: SK-MEL-2 melanoma
# A549 NSCLC = system: A549 NSCLC
# SK-OV-3 ovarian = system: SK-OV-3 ovarian
# NCI-H460 lung = system: NCI-H460 lung
# HT29 colon = system: HT29 colon
# SNB-78 CNS = system: SNB-78 CNS
# M19-MEL melanoma = system: M19-MEL melanoma
# MDA-MB-231 breast = system: MDA-MB-231 breast
# SN12C renal = system: SN12C renal
# OVCAR-5 ovarian = system: OVCAR-5 ovarian
# NCI/ADR-RES ovarian = system: NCI/ADR-RES ovarian
# MCF7 breast = system: MCF7 breast
# IGROV1 ovarian = system: IGROV1 ovarian
# SF-295 CNS = system: SF-295 CNS
# TK-10 renal = system: TK-10 renal
# NCI-H522 lung = system: NCI-H522 lung
# XF 498 CNS = system: XF 498 CNS
# DMS 114 small cell lung = system: DMS 114 small cell lung
# T-47D breast = system: T-47D breast
# HL-60(TB) leukemia = system: HL-60(TB) leukemia
# RPMI-8226 leukemia = system: RPMI-8226 leukemia
# CCRF-CEM leukemia = system: CCRF-CEM leukemia
# DU-145 prostate = system: DU-145 prostate
# M14 melanoma = system: M14 melanoma
# UO-31 renal = system: UO-31 renal
# COLO 205 colon = system: COLO 205 colon
# KM20L2 colon = system: KM20L2 colon
# K-562 leukemia = system: K-562 leukemia
# SNB-19 CNS = system: SNB-19 CNS
# SF-268 CNS = system: SF-268 CNS
# PC-3 prostate = system: PC-3 prostate
# MDA-MB-435 = system: MDA-MB-435
smiles,measurement,setting,value
Cc1cc(N=C2C=C(Nc3cc(C)on3)C(=O)c3ccccc32)no1,TGI,LXFL 529 NSCLC,> 100 µM
same,TGI,ACHN renal,> 100 µM
same,TGI,HCT-116 colon,> 100 µM
same,TGI,KM12 colon,> 100 µM
same,TGI,MDA-N,4.02 µM
same,TGI,MALME-3M melanoma,53 µM
same,TGI,HS 578T breast,> 100 µM
same,TGI,SR leukemia,> 100 µM
same,TGI,HOP-92 NSCLC,52.6 µM
same,TGI,786-0 renal,98.8 µM
same,TGI,EKVX NSCLC,> 100 µM
same,TGI,OVCAR-8 ovarian,> 100 µM
same,TGI,RXF 393 renal,> 65.9 µM
same,TGI,BT-549 breast,74.9 µM
same,TGI,NCI-H23 lung,26 µM
same,TGI,HOP-18 NSCLC,92.2 µM
same,TGI,LOX IMVI melanoma,> 61.5 µM
same,TGI,A498 renal,> 100 µM
same,TGI,UACC-257 melanoma,47 µM
same,TGI,NCI-H226 lung,> 100 µM
same,TGI,CAKI-1 renal,> 100 µM
same,TGI,OVCAR-3 ovarian,> 100 µM
same,TGI,MOLT-4 leukemia,> 100 µM
same,TGI,U251 CNS,> 95.1 µM
same,TGI,SW-620 colon,> 100 µM
same,TGI,UACC-62 melanoma,38.4 µM
same,TGI,SK-MEL-5 melanoma,15.9 µM
same,TGI,SK-MEL-28 melanoma,> 100 µM
same,TGI,OVCAR-4 ovarian,> 100 µM
same,TGI,SF-539 CNS,> 59.7 µM
same,TGI,DMS 273 small cell lung,> 100 µM
same,TGI,RXF-631 renal,> 100 µM
same,TGI,HOP-62 NSCLC,> 100 µM
same,TGI,DLD-1 colon,> 100 µM
same,TGI,HCT-15 colon,> 100 µM
same,TGI,SNB-75 CNS,> 87.8 µM
same,TGI,HCC-2998 colon,> 100 µM
same,TGI,SK-MEL-2 melanoma,72.5 µM
same,TGI,A549 NSCLC,> 100 µM
same,TGI,SK-OV-3 ovarian,> 100 µM
same,TGI,NCI-H460 lung,> 100 µM
same,TGI,HT29 colon,> 100 µM
same,TGI,SNB-78 CNS,68.1 µM
same,TGI,M19-MEL melanoma,8.12 µM
same,TGI,MDA-MB-231 breast,28.7 µM
same,TGI,SN12C renal,> 100 µM
same,TGI,OVCAR-5 ovarian,> 100 µM
same,TGI,NCI/ADR-RES ovarian,> 100 µM
same,TGI,MCF7 breast,63 µM
same,TGI,IGROV1 ovarian,> 78.1 µM
same,TGI,SF-295 CNS,> 100 µM
same,TGI,TK-10 renal,> 100 µM
same,TGI,NCI-H522 lung,> 100 µM
same,TGI,XF 498 CNS,> 100 µM
same,TGI,DMS 114 small cell lung,73.7 µM
same,TGI,T-47D breast,> 100 µM
same,TGI,HL-60(TB) leukemia,> 100 µM
same,TGI,RPMI-8226 leukemia,> 100 µM
same,TGI,CCRF-CEM leukemia,> 100 µM
same,TGI,DU-145 prostate,> 100 µM
same,TGI,M14 melanoma,> 100 µM
same,TGI,UO-31 renal,> 100 µM
same,TGI,COLO 205 colon,> 88.3 µM
same,TGI,KM20L2 colon,> 100 µM
same,TGI,K-562 leukemia,> 100 µM
same,TGI,SNB-19 CNS,> 100 µM
same,TGI,SF-268 CNS,> 100 µM
same,TGI,PC-3 prostate,> 100 µM
same,TGI,MDA-MB-435,22.5 µM
